Laboratory results: US20250333418A1, “PURINE COMPOUNDS, COMPOSITIONS COMPRISING THEM AND USES THEREOF” (Novo Nordisk A/S, priority 2022, published 2025)
pIC50: −log10 of the molar value.

Key:
human CB1 receptor [1] = molecular target: T1, human CB1 receptor (Homo sapiens, UniProt P21554); assay: bioSensAll GAPL-Gi2 BRET biosensor assay in HEK293 cells transfected with hCB1; test compound added before EC75-80 of agonist CP55,940 (0.1 nM); type: cell-based; details: vs CP55,940 0.1 nM (EC75-80), read-out: CB1 wt Gi2 IC50
T1 construct: expressed in transfected cells; host or cells: HEK293
T1 sequence (P21554 whole entry): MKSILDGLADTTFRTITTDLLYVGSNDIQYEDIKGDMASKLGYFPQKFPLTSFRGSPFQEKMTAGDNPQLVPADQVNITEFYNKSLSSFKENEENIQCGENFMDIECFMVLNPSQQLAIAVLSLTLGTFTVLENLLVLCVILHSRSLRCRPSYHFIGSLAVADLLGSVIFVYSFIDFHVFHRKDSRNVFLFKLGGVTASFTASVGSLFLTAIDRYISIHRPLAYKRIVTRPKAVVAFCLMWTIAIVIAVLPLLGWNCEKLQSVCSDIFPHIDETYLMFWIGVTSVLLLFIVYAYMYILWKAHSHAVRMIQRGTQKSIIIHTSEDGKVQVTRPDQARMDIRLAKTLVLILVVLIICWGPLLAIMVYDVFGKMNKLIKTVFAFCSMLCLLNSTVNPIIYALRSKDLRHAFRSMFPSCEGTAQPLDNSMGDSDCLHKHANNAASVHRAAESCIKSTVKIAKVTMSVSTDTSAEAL
In short: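 Test compounds at 12 doses up to 600 nM preceded a 0.1 nM CP55,940 challenge in hCB1/GAPL-Gi2 HEK293 cells. After overnight 37° C incubation, methoxy e-coelenterazine (2 µM final) was added and the 515/400 nm BRET ratio normalized to positive and negative controls.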

human CB1 receptor [2] = molecular target: T1, human CB1 receptor; assay: bioSensAll β-arrestin2 plasma membrane translocation (+GRK2) BRET biosensor assay in HEK293 cells transfected with hCB1; test compound added before EC75-80 of agonist CP55,940 (100 nM); type: cell-based; details: βArrestin2 (+GRK2) BRET biosensor, vs CP55,940 100 nM (EC75-80), read-out: CB1 wt βarr2 IC50
In short: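 Antagonist mode: compound at 12 concentrations up to 600 nM, then 100 nM CP55,940 3–5 min later, on hCB1-transfected HEK293 cells carrying the β-arrestin2 plasma-membrane biosensor plus GRK2. After overnight 37 °C incubation, 515/400 nm BRET ratio measured with 2 µM methoxy e-CTZ and standardized against positive/negative controls.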

CC(C)Oc1nc(OC(C)C)c2nc(-c3ccccc3Cl)n(-c3ccc(Cl)cc3)c2n1 [Compound 205]
pIC50 (human CB1 receptor [1]): 8.22
pIC50 (human CB1 receptor [2]): 7.26

CN(CCO)c1nc(N(C)CCO)c2nc(-c3ccccc3Cl)n(-c3ccc(Cl)cc3)c2n1 [Compound 200]
pIC50 (human CB1 receptor [1]): 8.76
pIC50 (human CB1 receptor [2]): 7.60

OC[C@@H]1CCCN1c1nc(N2CCC(C(F)(F)F)CC2)c2nc(-c3ccccc3Cl)n(-c3ccc(Cl)cc3)c2n1 [Compound 35, [(2S)-1-[8-(2-chlorophenyl)-9-(4-chlorophenyl)-6-[4-(trifluoromethyl)-1-piperidyl]purin-2-yl]pyrrolidin-2-yl]methanol]
pIC50 (human CB1 receptor [1]): 9.16
pIC50 (human CB1 receptor [2]): 8.48

CN(CCO)c1nc(N2CCOCC2)c2nc(-c3ccccc3Cl)n(-c3ccc(Cl)cc3)c2n1 [Compound 183]
pIC50 (human CB1 receptor [1]): 9.78
pIC50 (human CB1 receptor [2]): 9.11

CC(C)(O)COc1nc(N2CCC(C)(C(N)=O)CC2)c2nc(-c3ccccc3Cl)n(-c3ccccc3)c2n1 [Compound 95, 1-[8-(2-chlorophenyl)-2-(2-hydroxy-2-methyl-propoxy)-9-phenyl-purin-6-yl]-4-methyl-piperidine-4-carboxamide]
pIC50 (human CB1 receptor [1]): 7.89
pIC50 (human CB1 receptor [2]): 7.14

CN(CCO)c1nc(OCC(C)(C)O)nc2c1nc(-c1ccccc1Cl)n2-c1ccc(Cl)cc1 [Compound 97]
pIC50 (human CB1 receptor [1]): 7.59
pIC50 (human CB1 receptor [2]): 6.91

CC1(C(N)=O)CCN(c2nc(N3CC[C@@H](O)C3)nc3c2nc(-c2ccc(C#N)nc2)n3-c2ccc(Cl)cc2)CC1 [Compound 131, 1-[9-(4-chlorophenyl)-8-(6-cyano-3-pyridyl)-2-[(3R)-3-hydroxypyrrolidin-1-yl]purin-6-yl]-4-methyl-piperidine-4-carboxamide]
pIC50 (human CB1 receptor [1]): 9.15
pIC50 (human CB1 receptor [2]): 8.53

CC(=O)NC(=N)Nc1nc(N2CCC(C)(C(N)=O)CC2)c2nc(-c3ccccc3Cl)n(-c3ccc(Cl)cc3)c2n1 [Compound 18, 1-[2-[(N-acetylcarbamimidoyl)amino]-8-(2-chlorophenyl)-9-(4-chlorophenyl)purin-6-yl]-4-methyl-piperidine-4-carboxamide]
pIC50 (human CB1 receptor [1]): 8.43
pIC50 (human CB1 receptor [2]): 7.95

CC1(C(N)=O)CCN(c2nc(N3CCC[C@H]3CO)nc3c2nc(-c2ccccc2Cl)n3-c2ccc(Cl)cc2)CC1 [Compound 20, 1-[8-(2-chlorophenyl)-9-(4-chlorophenyl)-2-[(2S)-2-(hydroxymethyl)pyrrolidin-1-yl]purin-6-yl]-4-methyl-piperidine-4-carboxamide]
pIC50 (human CB1 receptor [1]): 9.59
pIC50 (human CB1 receptor [2]): 9.25

CC1(C(N)=O)CCN(c2nc(N3CC[C@@](C)(O)C3)nc3c2nc(-c2ccccc2Cl)n3-c2ccc(Cl)cc2)CC1 [Compound 223]
pIC50 (human CB1 receptor [1]): 9.04
pIC50 (human CB1 receptor [2]): 8.55

CCNC1(C(N)=O)CCN(c2nc(N3CCC(CO)C3)nc3c2nc(-c2ccccc2Cl)n3-c2ccc(Cl)cc2)CC1 (stereo not shown) [Compound 153]
pIC50 (human CB1 receptor [1]): 9.30
pIC50 (human CB1 receptor [2]): 8.89

CCNC1(C(N)=O)CCN(c2nc(N3CCCCC3)nc3c2nc(-c2ccccc2Cl)n3-c2ccc(Cl)cc2)CC1 [Compound 150]
pIC50 (human CB1 receptor [1]): 8.57
pIC50 (human CB1 receptor [2]): 8.09

CCOC1(C(N)=O)CCN(c2nc(N(C)CCO)nc3c2nc(-c2ccccc2Cl)n3-c2ccc(Cl)cc2)CC1 [Compound 182]
pIC50 (human CB1 receptor [1]): 9.76
pIC50 (human CB1 receptor [2]): 9.18

CC1(C(N)=O)CCN(c2nc(C(=O)O)nc3c2nc(-c2ccccc2Cl)n3-c2ccc(Cl)cc2)CC1 [Compound 77, 6-(4-carbamoyl-4-methyl-1-piperidyl)-8-(2-chlorophenyl)-9-(4-chlorophenyl)purine-2-carboxylic acid]
pIC50 (human CB1 receptor [1]): < 5.30
pIC50 (human CB1 receptor [2]): < 5.30

CC(C)Oc1nc(OCC(C)(C)O)nc2c1nc(-c1ccccc1Cl)n2-c1ccc(Cl)cc1 [Compound 86]
pIC50 (human CB1 receptor [1]): 8.86
pIC50 (human CB1 receptor [2]): 8.02

CCOC1(C(N)=O)CN(c2nc(OCC(C)(C)O)nc3c2nc(-c2ccc(C#N)nc2)n3-c2ccc(Cl)cc2)C1 [Compound 139, 1-[9-(4-chlorophenyl)-8-(6-cyano-3-pyridyl)-2-(2-hydroxy-2-methyl-propoxy)purin-6-yl]-3-ethoxy-azetidine-3-carboxamide]
pIC50 (human CB1 receptor [1]): 8.12
pIC50 (human CB1 receptor [2]): 7.23

Cc1cnn(-c2nc(N3CCC(C(F)(F)F)CC3)c3nc(-c4ccccc4Cl)n(-c4ccc(Cl)cc4)c3n2)c1 [Compound 21, 8-(2-chlorophenyl)-9-(4-chlorophenyl)-2-(4-methylpyrazol-1-yl)-6-[4-(trifluoromethyl)-1-piperidyl]purine]
pIC50 (human CB1 receptor [1]): 8.36
pIC50 (human CB1 receptor [2]): 7.54

C[C@H]1CN(c2nc(OCC(C)(C)O)nc3c2nc(-c2ccccc2Cl)n3-c2ccc(Cl)cc2)CCO1 [Compound 210]
pIC50 (human CB1 receptor [1]): 8.81
pIC50 (human CB1 receptor [2]): 7.73

CN(CCO)c1nc(N2CCC(C(F)(F)F)CC2)c2nc(-c3ccccc3Cl)n(-c3ccc(Cl)cc3)c2n1 [Compound 161, 1-[[8-(2-chlorophenyl)-9-(4-chlorophenyl)-6-[4-(trifluoromethyl)-1-piperidyl]purin-2-yl]-methyl-amino]-ethan-2-ol]
pIC50 (human CB1 receptor [1]): 9.02
pIC50 (human CB1 receptor [2]): 8.82

CCOC1(C(N)=O)CCN(c2nc(OCC(C)(C)O)nc3c2nc(-c2ccccc2Cl)n3-c2ccc(Cl)cc2)CC1 [Compound 207]
pIC50 (human CB1 receptor [1]): 9.19
pIC50 (human CB1 receptor [2]): 8.69

Cc1cnc(-c2nc3c(N4CCC(C)(C(N)=O)CC4)nc(N(C)CCO)nc3n2-c2ccc(Cl)cc2)n1C [Compound 115, 1-(9-(4-chlorophenyl)-8-(1,5-dimethyl-1H-imidazol-2-yl)-2-((2-hydroxyethyl)(methyl)amino)-9H-purin-6-yl)-4-methylpiperidine-4-carboxamide]
pIC50 (human CB1 receptor [1]): 7.75
pIC50 (human CB1 receptor [2]): 7.03

C[C@H](CO)Oc1nc(N2CCC(C)(C(N)=O)CC2)c2nc(-c3ccccc3Cl)n(-c3ccc(Cl)cc3)c2n1 [Compound 81, 1-[8-(2-chlorophenyl)-9-(4-chlorophenyl)-2-[(1R)-2-hydroxy-1-methyl-ethoxy]purin-6-yl]-4-methyl-piperidine-4-carboxamide]
pIC50 (human CB1 receptor [1]): 9.05
pIC50 (human CB1 receptor [2]): 8.31

FC(F)(F)C1CCN(c2nc(-c3cc[nH]n3)nc3c2nc(-c2ccccc2Cl)n3-c2ccc(Cl)cc2)CC1 [Compound 39]
pIC50 (human CB1 receptor [1]): 8.48
pIC50 (human CB1 receptor [2]): 7.79

CC(C)(O)COc1nc(N2CC(C)(O)C2)c2nc(-c3ccc(C#N)nc3)n(-c3ccc(Cl)cc3)c2n1 [Compound 112, 5-[9-(4-chlorophenyl)-6-(3-hydroxy-3-methyl-azetidin-1-yl)-2-(2-hydroxy-2-methyl-propoxy)purin-8-yl]pyridine-2-carbonitrile]
pIC50 (human CB1 receptor [1]): 7.05
pIC50 (human CB1 receptor [2]): 6.98

Cc1ccncc1-c1nc2c(N3CCC(C)(C(N)=O)CC3)nc(OCC(C)(C)O)nc2n1-c1ccc(Cl)cc1 [Compound 105, 1-[9-(4-chlorophenyl)-2-(2-hydroxy-2-methyl-propoxy)-8-(4-methyl-3-pyridyl)purin-6-yl]-4-methyl-piperidine-4-carboxamide]
pIC50 (human CB1 receptor [1]): 7.75
pIC50 (human CB1 receptor [2]): 6.12

Cc1ccn(-c2nc(N3CCC(C(F)(F)F)CC3)c3nc(-c4ccccc4Cl)n(-c4ccc(Cl)cc4)c3n2)n1 [Compound 22, 8-(2-chlorophenyl)-9-(4-chlorophenyl)-2-(3-methylpyrazol-1-yl)-6-[4-(trifluoromethyl)-1-piperidyl]purine]
pIC50 (human CB1 receptor [1]): 8.88
pIC50 (human CB1 receptor [2]): 7.95

CCOc1nc(OCC(C)(C)O)nc2c1nc(-c1ccccc1Cl)n2-c1ccc(Cl)cc1 [Compound 99]
pIC50 (human CB1 receptor [1]): 8.35
pIC50 (human CB1 receptor [2]): 7.44

CN(CCO)c1nc(N2CCN(C(N)=O)CC2)c2nc(-c3ccccc3Cl)n(-c3ccc(Cl)cc3)c2n1 [Compound 157]
pIC50 (human CB1 receptor [1]): 9.03
pIC50 (human CB1 receptor [2]): 8.22

Cc1cn(C)c(-c2nc3c(N4CCC(C)(C(N)=O)CC4)nc(N(C)CCO)nc3n2-c2ccc(Cl)cc2)n1 [Compound 57, 1-[9-(4-chlorophenyl)-8-(1,4-dimethylimidazol-2-yl)-2-[2-hydroxyethyl(methyl)amino]purin-6-yl]-4-methyl-piperidine-4-carboxamide]
pIC50 (human CB1 receptor [1]): 7.39
pIC50 (human CB1 receptor [2]): 6.92

CN1C[C@H](F)C[C@H]1COc1nc(N2CCC(C)(C(N)=O)CC2)c2nc(-c3ccccc3Cl)n(-c3ccc(Cl)cc3)c2n1 [Compound 232]
pIC50 (human CB1 receptor [1]): 9.03
pIC50 (human CB1 receptor [2]): 8.71

CC(C)(O)COc1nc(N2C[C@H]3C[C@@H]2CO3)c2nc(-c3ccccc3Cl)n(-c3ccc(Cl)cc3)c2n1 [Compound 203]
pIC50 (human CB1 receptor [1]): 8.86
pIC50 (human CB1 receptor [2]): 8.19

COC(=O)N1CCN(c2nc(OCC(C)(C)O)nc3c2nc(-c2ccccc2Cl)n3-c2ccc(Cl)cc2)CC1 [Compound 224]
pIC50 (human CB1 receptor [1]): 8.90
pIC50 (human CB1 receptor [2]): 8.10

CS(=O)(=O)CCNc1nc(N2CCC(C(F)(F)F)CC2)c2nc(-c3ccccc3Cl)n(-c3ccc(Cl)cc3)c2n1 [Compound 28, 8-(2-chlorophenyl)-9-(4-chlorophenyl)-N-(2-methylsulfonylethyl)-6-[4-(trifluoromethyl)-1-piperidyl]purin-2-amine]
pIC50 (human CB1 receptor [1]): 8.99
pIC50 (human CB1 receptor [2]): 7.91

C[C@H]1COCCN1c1nc(OCC(C)(C)O)nc2c1nc(-c1ccccc1Cl)n2-c1ccc(Cl)cc1 [Compound 211]
pIC50 (human CB1 receptor [1]): 9.03
pIC50 (human CB1 receptor [2]): 8.16

CC(C)(C)OC(=O)NCCOc1nc(N2CCC(C)(C(N)=O)CC2)c2nc(-c3ccccc3Cl)n(-c3ccc(Cl)cc3)c2n1 [Compound 60, tert-butyl N-[2-[6-(4-carbamoyl-4-methyl-1-piperidyl)-8-(2-chlorophenyl)-9-(4-chlorophenyl)purin-2-yl]oxyethyl]carbamate]
pIC50 (human CB1 receptor [1]): 8.16
pIC50 (human CB1 receptor [2]): 7.71
